Values of other authors as cited in US20070197486A1, “Methods and systems for the delivery of corticosteroids” (Verus Pharmaceuticals, Inc., priority 2005, published 2007).
Where two headings read alike, the source gives them in different places.

solubility (in alcohols): readily soluble | solubility (in water): virtually insoluble
SMILES: CCCC1O[C@@H]2C[C@H]3[C@@H]4CCC5=CC(=O)C=C[C@]5(C)[C@H]4[C@@H](O)C[C@]3(C)[C@]2(C(=O)CO)O1 (stereo partly drawn) [budesonide, (R,S)-11β,16α,17,21-tetrahydroxypregna-1,4-diene-3,20-dione cyclic 16,17-acetal with butyraldehyde]
